Laboratory results: patent publication US20100152259A1 (Merck & Co Inc., priority 2006, published 2010)

system: rabbit aortic slices; test: vessel relaxation assay (tissue-based, rabbit aortic slices); type: cell-based; details: Oryctolagus cuniculus

Structure (SMILES)	EC50
CCCCc1nc(Cl)c(C(=O)OC(C)OC(=O)OCCCC[C@H](CO[N+](=O)[O-])O[N+](=O)[O-])n1Cc1ccc(-c2ccccc2-c2nn[nH]n2)cc1 (single isomer, unassigned) [Compound 2]	1000 nM
CCCCc1nc(Cl)c(C(=O)OCCOCCO[N+](=O)[O-])n1Cc1ccc(-c2ccccc2-c2nn[nH]n2)cc1 [Compound 1, reference compound]	6000 nM
CCCCc1nc(Cl)c(C(=O)OC(C)OC(=O)OCCOCC(CO[N+](=O)[O-])O[N+](=O)[O-])n1Cc1ccc(-c2ccccc2-c2nnn[nH]2)cc1 (stereo not drawn) [Compound 3]	5000 nM
CCCCc1nc(Cl)c(C(=O)OC(C)OC(=O)OCCC(C)(C)CC(CO[N+](=O)[O-])O[N+](=O)[O-])n1Cc1ccc(-c2ccccc2-c2nnn[nH]2)cc1 (stereo not drawn) [Example 4, 1-[({[3,3-dimethyl-5,6-bis(nitrooxy)hexyl]oxy}carbonyl)oxy]ethyl 2-butyl-4-chloro-1-{[2′-(1H-tetrazol-5-yl)biphenyl-4-yl]methyl}-1H-imidazole-5-carboxylate]	1100 nM
CCOc1nc2cccc(C(=O)OC(C)(C)OC(=O)OCCCCC(CO[N+](=O)[O-])O[N+](=O)[O-])c2n1Cc1ccc(-c2ccccc2-c2nnn[nH]2)cc1 (stereo not drawn) [Example 8, 1-[({[5,6-bis(nitrooxy)hexyl]oxy}carbonyl)oxy]-1-methylethyl 2-ethoxy-1-{[2′-(1H-tetrazol-5-yl)biphenyl-4-yl]methyl}-1H-benzimidazole-7-carboxylate]	370 nM
CCOc1nc2cccc(C(=O)OC(C)(C)OC(=O)OCCCC[C@H](CO[N+](=O)[O-])O[N+](=O)[O-])c2n1Cc1ccc(-c2ccccc2-c2nnn[nH]2)cc1 [Example 9, 1-[({[(5R)-5,6-bis(nitrooxy)hexyl]oxy}carbonyl)oxy]-1-methylethyl 2-ethoxy-1-{[2′-(1H-tetrazol-5-yl)biphenyl-4-yl]methy}-1H-benzimidazole-7-carboxylate]	990 nM
CCOc1nc2cccc(C(=O)OC(C)(C)OC(=O)OCCOCC(CO[N+](=O)[O-])O[N+](=O)[O-])c2n1Cc1ccc(-c2ccccc2-c2nnn[nH]2)cc1 (stereo not drawn) [Example 10]	2380 nM
CCOc1nc2cccc(C(=O)OC(C)(C)OC(=O)OCCOC[C@H](CO[N+](=O)[O-])O[N+](=O)[O-])c2n1Cc1ccc(-c2ccccc2-c2nnn[nH]2)cc1 [Example 11, 1-{[(2-{[(2R)-2,3-bis(nitrooxy)propyl]oxy}ethoxy)carbonyl]oxy}-1-methylethyl 2-ethoxy-1-{[2′-(1H-tetrazol-5-yl)biphenyl-4-yl]methyl}-1H-benzimidazole-7-carboxylate]	2300 nM
CCOc1nc2cccc(C(=O)OC(C)(C)OC(=O)OCC[C@@H](CO[N+](=O)[O-])O[N+](=O)[O-])c2n1Cc1ccc(-c2ccccc2-c2nnn[nH]2)cc1 [Example 12, 1-[({[(3S)-3,4-bis(nitrooxy)butyl]oxy}carbonyl)oxy]-1-methylethyl 2-ethoxy-1-{[2′-(1H-tetrazol-5-yl)biphenyl-4-yl]methyl}-1H-benzimidazole-7-carboxylate]	3730 nM
